Test results reported in PubChem BioAssay AID1963429 (Molecular Pharmacology Branch, DTP, NCI, 2024).

System: 126254-015-R-J1-PDC complex spheroid growth, % test/control
Assay: Anticancer human tumor 126254-015-R-J1-PDC patient-derived soft tissue sarcoma cell line growth inhibition [Asc]
Settings: for IC50: curve of first compound; for viability, T/C: stronger effect = lower value
Method: Multicellular complex tumor spheroid response to apoptosis pathway targeting inhibitors Alrizomadlin, Pelcitoclax, and Dasminapant in combination with a variety of drugs and investigational agents in selected tumor cell lines
The MDM2 inhibitor alrizomadlin, the Bcl-2/Bcl-xL inhibitor pelcitoclax, and the IAPs inhibitor dasminapant were evaluated both individually and in combination with standard of care and investigational anticancer small molecules within a complex spheroid model of solid tumors. . Complex spheroids include a stromal component modeled by human endothelial cells (HUVEC) and fibroblasts modeled by human mesenchymal stem cells (MSCs). The concentration ranges selected for each drug and investigational agent were based upon clinically achievable concentrations if the clinical Cmax of the agent was known.
Compounds. The drugs and investigational agents: alrizomadlin (APG-115; NSC831270), pelcitoclax (APG-1252; NSC835773), dasminapant (APG-1387;NSC834197), TAK-243 (NSC785004), copanlisib (NSC809693), olaparib (NSC753686), talazoparib (NSC767125), cobimetinib (NSC 768068), eltanexor (KPT-8602, NSC 794443), abemaciclib (NSC 768073), sotorasib (NSC818433), adagrasib (NSC 831453), MRTX-1133 (NSC 836407), Iadademestat (ORY1001, NSC 806812), and RMC-4630 (NSC839698), were obtained from the NCI Developmental Therapeutics Program Chemical Repository. The FDA-approved anticancer drug set is available from the Developmental Therapeutics Program at https://dtp.cancer.gov/organization/dscb/obtaining/available plates.htm. […] The stock solutions were prepared in dimethyl sulfoxide (DMSO, Sigma-Aldrich, St. Louis, MO, cat. D2650) at 800-fold the tested concentration and stored at -70 degrees C prior to their use. All drugs and investigational agents were tested over a range starting from a high concentration at or near the clinical Cmax and decreasing in half-log increments. If the clinical Cmax for an agent had not been determined, the highest concentration tested was 10 microM.
The patient-derived cancer (PDC) cell lines include five colon adenocarcinomas: 186277-243-T-J2-PDC, 616215-338-R-J1-PDC, 439559-082-T-J2-PDC, 463943-066-T-J2-PDC, and 519858-162-T-J1-PDC; three pancreatic carcinomas: 323965-272-R-J2-PDC, 521955-158-R6-J3-PDC, and 521955-158-R2-J5-PDC; two uterine sarcomas: 327498-152-R-J2-PDC and 993429-296-R-J1-PDC; two rhabdomyosarcomas: 755483-174-R-J1-PDC and 772245-204-R-J1-PDC; two soft tissue sarcomas: 126254-015-R-J1-PDC and 494315-158-R-J1-PDC; two malignant fibrous histiocytomas: 317291-083-R-J1-PDC and 596521-263-R-J1-PDC; two breast carcinomas: 171881-019-R-J1-PDC and 885512-296-R-J2-PDC; and one ovarian carcinoma: 6556581-035-R-J-PDC were obtained from the NCI PDMR, (https://pdmr.cancer.gov). The established cell lines HSSY-2 synovial sarcoma (RRID:CVCL 8719), SYO-1 synovial sarcoma (RRID:CVCL_7146), MPNST malignant peripheral neural sheath tumor were obtained from the Sloan Kettering Institute. The following established cell lines were purchased from the American Type Culture Collection (ATCC, Manassas, VA), Sor the received from the NCI repository:, PANC-1 pancreatic carcinoma (CRL-1469, RRID:CVCL_0480), OVCAR-5 ovarian carcinoma (RRID:CVCL_1628), OVCAR-8 ovarian carcinoma (RRID:CVCL_1629), , MCF-7 breast carcinoma (CRL-12584, RRID:CVCL_0031), MDA-MB-231 breast carcinoma (CRL-12532, RRID:CVCL_0062), NCI-H1876 small cell lung carcinoma (CRL-5902, RRID:CVCL_1503), NCI-H510A small cell lung carcinoma (HTB-184, RRID:CVCL_1565), NCI-H1417 (CRL-5869, RRID:CVCL_1469), and NCI-H196 small cell lung carcinoma (CRL-5823, RRID:CVCL_1509). Dr. Peter Houghton (Greehey Children's Cancer Research Institute, University of Texas Health Science Center, San Antonio, TX) provided Rh-18 rhabdomyosarcoma (RRID:CVCL_1659). Pooled donor human umbilical vein endothelial cells (HUVEC, Lonza, cat. CC-2519) and human mesenchymal stem cells (hMSC, Lonza, cat. PT-2501) were purchased from Lonza (Walkersville, MD).
Cell Culture. […]

[1] = second compound 0.03 µM, first compound 0.00316 µM
[2] = second compound 0.03 µM, first compound 0.01 µM
[3] = second compound 0.03 µM, first compound 0.0316 µM
[4] = second compound 0.03 µM, first compound 0.1 µM
[5] = second compound 0.03 µM, first compound 0.316 µM
[6] = second compound 0.03 µM, first compound 1 µM
[7] = second compound 0.0949 µM, first compound 0.00316 µM
[8] = second compound 0.0949 µM, first compound 0.01 µM
[9] = second compound 0.0949 µM, first compound 0.0316 µM
[10] = second compound 0.0949 µM, first compound 0.1 µM
[11] = second compound 0.0949 µM, first compound 0.316 µM
[12] = second compound 0.0949 µM, first compound 1 µM
[13] = second compound 0.3 µM, first compound 0.00316 µM
[14] = second compound 0.3 µM, first compound 0.01 µM
[15] = second compound 0.3 µM, first compound 0.0316 µM
[16] = second compound 0.3 µM, first compound 0.1 µM
[17] = second compound 0.3 µM, first compound 0.316 µM
[18] = second compound 0.3 µM, first compound 1 µM
[19] = second compound 0.949 µM, first compound 0.00316 µM
[20] = second compound 0.949 µM, first compound 0.01 µM
[21] = second compound 0.949 µM, first compound 0.0316 µM
[22] = second compound 0.949 µM, first compound 0.1 µM
[23] = second compound 0.949 µM, first compound 0.316 µM
[24] = second compound 0.949 µM, first compound 1 µM
[25] = second compound 3 µM, first compound 0.00316 µM
[26] = second compound 3 µM, first compound 0.01 µM
[27] = second compound 3 µM, first compound 0.0316 µM
[28] = second compound 3 µM, first compound 0.1 µM
[29] = second compound 3 µM, first compound 0.316 µM
[30] = second compound 3 µM, first compound 1 µM
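Also: spheroids exposed to compound for seven days.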
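For viability, T/C in this document: 100% = DMSO vehicle control wells.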

With `CCN1CCN(Cc2ccc(Nc3ncc(F)c(-c4cc(F)c5nc(C)n(C(C)C)c5c4)n3)nc2)CC1` + CCN1C(C(=O)NC23CCC(C(=O)O)(CC2)CC3)C(c2cccc(Cl)c2F)C2(C(=O)Nc3cc(Cl)ccc32)C12CCCCC2 the IC50 (second compound 0.03 µM) was greater than 1000 nM, the IC50 (second compound 0.0949 µM) was greater than 1000 nM and the IC50 (second compound 0.3 µM) was greater than 1000 nM. It also gave an IC50 (second compound 0.949 µM) greater than 1000 nM, an IC50 (second compound 3 µM) greater than 1000 nM and a viability, T/C [1] of 87.6%. It also gave a viability, T/C [2] of 93.2%, a viability, T/C [3] of 99.5% and a viability, T/C [4] of 91.3%. For the same compound, the viability, T/C [5] was 105%, the viability, T/C [6] was 109% and the viability, T/C [7] was 91.2%. The viability, T/C [8] was 94.9%, the viability, T/C [9] was 97% and the viability, T/C [10] was 102%. For the same compound, the viability, T/C [11] was 91.3%, the viability, T/C [12] was 109% and the viability, T/C [13] was 89%. For the same compound, the viability, T/C [14] was 96.9%, the viability, T/C [15] was 96.6% and the viability, T/C [16] was 89.8%. The viability, T/C [17] was 101%, the viability, T/C [18] was 105% and the viability, T/C [19] was 99.5%. It also gave a viability, T/C [20] of 98.3%, a viability, T/C [21] of 92.2% and a viability, T/C [22] of 88.8%. It also gave a viability, T/C [23] of 122%, a viability, T/C [24] of 113% and a viability, T/C [25] of 96.1%. For the same compound, the viability, T/C [26] was 93.8%, the viability, T/C [27] was 96.3% and the viability, T/C [28] was 94.7%. It also gave a viability, T/C [29] of 106% and a viability, T/C [30] of 104%.
Compound `NC(=O)C(=Cn1cnc(-c2cc(C(F)(F)F)cc(C(F)(F)F)c2)n1)c1cncnc1` + CCN1C(C(=O)NC23CCC(C(=O)O)(CC2)CC3)C(c2cccc(Cl)c2F)C2(C(=O)Nc3cc(Cl)ccc32)C12CCCCC2 has an IC50 (second compound 0.03 µM) of 66.2 nM, an IC50 (second compound 0.0949 µM) of 49.3 nM and an IC50 (second compound 0.3 µM) of 43.9 nM. It also gave an IC50 (second compound 0.949 µM) of 49.5 nM, an IC50 (second compound 3 µM) of 67 nM and a viability, T/C (second compound 0.03 µM, first compound 0.000949 µM) of 93.9%. The viability, T/C (second compound 0.03 µM, first compound 0.003 µM) was 87.4%, the viability, T/C (second compound 0.03 µM, first compound 0.00949 µM) was 79.4% and the viability, T/C (second compound 0.03 µM, first compound 0.03 µM) was 77.8%. It also gave a viability, T/C (second compound 0.03 µM, first compound 0.0949 µM) of 37.5%, a viability, T/C (second compound 0.03 µM, first compound 0.3 µM) of 19.6% and a viability, T/C (second compound 0.0949 µM, first compound 0.000949 µM) of 102%. It also gave a viability, T/C (second compound 0.0949 µM, first compound 0.003 µM) of 90.5%, a viability, T/C (second compound 0.0949 µM, first compound 0.00949 µM) of 78.6% and a viability, T/C (second compound 0.0949 µM, first compound 0.03 µM) of 61.3%. It also gave a viability, T/C (second compound 0.0949 µM, first compound 0.0949 µM) of 35.8%, a viability, T/C (second compound 0.0949 µM, first compound 0.3 µM) of 14% and a viability, T/C (second compound 0.3 µM, first compound 0.000949 µM) of 90.1%. It also gave a viability, T/C (second compound 0.3 µM, first compound 0.003 µM) of 102%, a viability, T/C (second compound 0.3 µM, first compound 0.00949 µM) of 83% and a viability, T/C (second compound 0.3 µM, first compound 0.03 µM) of 53.1%. For the same compound, the viability, T/C (second compound 0.3 µM, first compound 0.0949 µM) was 39.3%, the viability, T/C (second compound 0.3 µM, first compound 0.3 µM) was 17.5% and the viability, T/C (second compound 0.949 µM, first compound 0.000949 µM) was 96.5%. For the same compound, the viability, T/C (second compound 0.949 µM, first compound 0.003 µM) was 87.4%, the viability, T/C (second compound 0.949 µM, first compound 0.00949 µM) was 96.1% and the viability, T/C (second compound 0.949 µM, first compound 0.03 µM) was 64.2%. For the same compound, the viability, T/C (second compound 0.949 µM, first compound 0.0949 µM) was 31.6%, the viability, T/C (second compound 0.949 µM, first compound 0.3 µM) was 21% and the viability, T/C (second compound 3 µM, first compound 0.000949 µM) was 102%. The viability, T/C (second compound 3 µM, first compound 0.003 µM) was 99.3%, the viability, T/C (second compound 3 µM, first compound 0.00949 µM) was 87.7% and the viability, T/C (second compound 3 µM, first compound 0.03 µM) was 70.2%. It also gave a viability, T/C (second compound 3 µM, first compound 0.0949 µM) of 41.1% and a viability, T/C (second compound 3 µM, first compound 0.3 µM) of 19.6%.
With `O=C(c1ccc(F)c(F)c1Nc1ccc(I)cc1F)N1CC(O)([C@@H]2CCCCN2)C1` + CCN1C(C(=O)NC23CCC(C(=O)O)(CC2)CC3)C(c2cccc(Cl)c2F)C2(C(=O)Nc3cc(Cl)ccc32)C12CCCCC2 the IC50 (second compound 0.03 µM) was 552 nM, the IC50 (second compound 0.0949 µM) was 622 nM and the IC50 (second compound 0.3 µM) was 570 nM. It also gave an IC50 (second compound 0.949 µM) of 638 nM, an IC50 (second compound 3 µM) of 641 nM and a viability, T/C [1] of 100%. It also gave a viability, T/C [2] of 108%, a viability, T/C [3] of 97.2% and a viability, T/C [4] of 96.2%. The viability, T/C [5] was 65.6%, the viability, T/C [6] was 33.2% and the viability, T/C [7] was 105%. For the same compound, the viability, T/C [8] was 109%, the viability, T/C [9] was 107% and the viability, T/C [10] was 97.8%. The viability, T/C [11] was 68.9%, the viability, T/C [12] was 36.8% and the viability, T/C [13] was 107%. For the same compound, the viability, T/C [14] was 106%, the viability, T/C [15] was 112% and the viability, T/C [16] was 82.9%. It also gave a viability, T/C [17] of 68.8%, a viability, T/C [18] of 34.3% and a viability, T/C [19] of 102%. It also gave a viability, T/C [20] of 110%, a viability, T/C [21] of 106% and a viability, T/C [22] of 86.2%. The viability, T/C [23] was 63.5%, the viability, T/C [24] was 41.8% and the viability, T/C [25] was 99.5%. For the same compound, the viability, T/C [26] was 99.7%, the viability, T/C [27] was 100% and the viability, T/C [28] was 87.2%. It also gave a viability, T/C [29] of 69.2% and a viability, T/C [30] of 38.2%.
